Results on one compound are retold here after patent publication US9433593B1, “Composition for anti-inflammation containing 5-adamantan-1-yl-N-(2,4-dihydroxy-benzyl)-2,4-dimethoxy-benzamide” (Amorepacific Corporation, priority 2015, dated 2016).

One data set has as its system RAW 264.7 cells. The data set can be described thus: Cytotoxicity by MTT method. The class given is cell-based. How it is done: (§1) RAW 264.7 cells (murine macrophage cell line) (ATCC, Rockville, Md., USA) and HEK 293 cells were cultured in RPMI 1640 medium supplemented with FBS (10% heat-inactivated fetal bovine serum; Gibco, Grand Island, N.Y., USA), glutamine and antibiotics (penicillin and streptomycin) at 37° C. under 5% CO2.
In all experiments, the cells were detached with a cell scraper. When the cells were cultured to a density of 2×10^6 cells/mL, the ratio of dead cells was 1% or lower (determined by the trypan blue dye exclusion method)
During subculturing, RAW 264.7 cells were plated on a well plate to a concentration of 1×10^6 cells/well. After culturing for 18 hours, the cells were treated with 5-adamantan-1-yl-N-(2,4-dihydroxybenzyl)-2,4-dimethoxybenzamide (denoted as ‘AP736’ in FIG. 1) at concentrations of 0-30 μM. Then, the cells were cultured in an incubator for 8 hours or 24 hours. Cytotoxicity was evaluated by the commonly used MTT method. 3 hours before the last culturing, 10 μL of an MTT (3-[4,5-dimethylthiazol-2-yl]-2,5-diphenyltetrazolium bromide) solution (10 mg/mL in phosphate-buffered saline, pH 7.4) was added to each well. After terminating reaction by adding 15% SDS (sodium dodecyl sulfate) to each well, the formed formazan crystals were dissolved. Then, absorbance was measured at 570 nm on a microplate reader.

Data set [1] relates to NO production in RAW 264.7 cells. The data set can be described thus: NO production in LPS-treated cells (Griess test). The class given is cell-based, murine. Particulars: 0-30 μM for 30 minutes, then LPS (1 μg/mL) 24 hours, vs group treated only with LPS. How it is done: as §1
(§2) RAW 264.7 cells (1×10^6 cells/well) that had been preincubated for 18 hours were treated with 5-adamantan-1-yl-N-(2,4-dihydroxybenzyl)-2,4-dimethoxybenzamide (hereinafter, ‘AP736’) at concentrations of 0-30 μM for 30 minutes and then incubated for 6 hours or 24 hours with LPS (1 μg/mL). The supernatant was recovered after the incubation. The cells incubated for 6 hours were subjected to PGE2 analysis and those incubated for 24 hours were subjected to NO analysis. The NO concentration in the culture medium was measured by the Griess test (Promega, Madison, Wis., USA). And, the concentration of PGE2 released to the culture medium was measured using an EIA kit (Amersham, Little Chalfont, Buckinghamshire, UK).

Data set [2] has as its system PGE2 production in RAW 264.7 cells. The data set can be described thus: PGE2 production in LPS-treated cells (EIA kit). The class given is cell-based, murine. Particulars: 0-30 μM for 30 minutes, then LPS (1 μg/mL) 6 hours, vs group treated only with LPS. How it is done:
as §1, §2

The test system of the next data set is iNOS. The data set can be described thus: LPS-induced iNOS expression (RT-PCR). To be noted: RAW 264.7 cells, pretreated at different concentrations, LPS 4 hours. It is filed as cell-based, murine. How it is done:
(§3) The expression level of iNOS, COX-2 and IL-1β which are known as inflammation-inducing factors was measured.
(§4) In order to investigate the effect of 5-adamantan-1-yl-N-(2,4-dihydroxybenzyl)-2,4-dimethoxybenzamide on inhibition of iNOS, COX-2 and IL-1β expression in RAW 264.7 cells, the cells were pretreated with 5-adamantan-1-yl-N-(2,4-dihydroxybenzyl)-2,4-dimethoxybenzamide at different concentrations and then RT-PCR was conducted after treating with LPS for 4 hours.

For another data set, the system named is COX-2. The data set can be described thus: LPS-induced COX-2 expression (RT-PCR). The class given is cell-based, murine. Particulars: RAW 264.7 cells, pretreated at different concentrations, LPS 4 hours. How it is done:
as §3, §4

The test system of a further data set is IL-1β. As to the kind of experiment: LPS-induced IL-1β expression (RT-PCR). It is filed as cell-based, murine. To be noted: RAW 264.7 cells, pretreated at different concentrations, LPS 4 hours. How it is done: as §3, §4
For the next data set, the system named is NF-κB. The data set can be described thus: NF-κB luciferase reporter gene assay. It is filed as cell-based. Particulars: HEK 293 cells, NF-κB-Luc, MyD88 or TRIF cotransfected, 8 hours. How it is done:
as §1
(§5) The activity of transcription factors can be tested by the luciferase reporter gene assay. It is known that the activity of NF-κB and AP-1 is induced by the TLR adapter protein. NF-κB and AP-1 are known to produce the inflammatory factors NO and PGE2.
(§6) HEK 293 cells (1×10^6 cells/well) were cotransfected with 1 μg of a plasmid containing NF-κB-Luc (luciferase) and AP-1-Luc constructs. The transfection was conducted on a 12-well plate by the PEI method. After 48 hours, the transformed cells were used for experiment. MyD88 or TRIF (1 μg/mL each), which are known as TLR adapter proteins, were cotransfected for 8 hours together with 5-adamantan-1-yl-N-(2,4-dihydroxybenzyl)-2,4-dimethoxybenzamide (5-adamantan-1-yl-N-(2,4-dihydroxybenzyl)-2,4-dimethoxybenzamide is denoted as ‘AP736’ in FIG. 5). The luciferase reporter gene assay was performed using the luciferase assay system (Promega, Madison, Wis.).

Another data set deals with AP-1. As to the kind of experiment: AP-1 luciferase reporter gene assay. It is filed as cell-based. Particulars: HEK 293 cells, AP-1-Luc, MyD88 or TRIF cotransfected, 8 hours. How it is done: as §1, §5, §6
On the technique in general: In a reporter assay the amount or activity of a reporter protein is the signal.

As for `COc1cc(OC)c(C23CC4CC(CC(C4)C2)C3)cc1C(=O)NCc1ccc(O)cc1O` [5-adamantan-1-yl-N-(2,4-dihydroxybenzyl)-2,4-dimethoxybenzamide], the cell viability (as a rule, a read-out of living cells in per cent, often relative to untreated cells) is on record as 100% in the data set with RAW 264.7 cells (10 μM, treated for 8 hours); 100% in the data set on RAW 264.7 cells (10 μM, treated for 24 hours); 100% in the data set with RAW 264.7 cells (20 μM, treated for 8 hours); 100% with RAW 264.7 cells (20 μM, treated for 24 hours); ~80% in the data set on RAW 264.7 cells (30 μM, cultured for 24 hours). Moreover, the NO production result in data set [1] is reported as “statistically significant decrease in NO production with increasing concentration”. Further, the “concentration of PGE2” value in data set [2] is reported as “decreased as compared to the group treated only with LPS with increasing concentration”. Besides, the “expression of the mRNAs and proteins of iNOS induced by LPS” value in the data set with iNOS is “distinctly inhibited”. Also, the “expression of the mRNAs and proteins of COX-2 induced by LPS” value in the data set with COX-2 was “distinctly inhibited”. In addition, the “expression of the mRNAs and proteins of IL-1β induced by LPS” value in the data set on IL-1β was “distinctly inhibited”. The “activity of NF-κB” value in the data set with NF-κB is “decreased activity”. In the data set with AP-1, the “activity of AP-1” value is recorded as “decreased activity”.
